Calls of active or inactive are those of the source. No cut-off for these calls is given here.
Legend:
[1] = organism: Sus scrofa; assay: Induction of pig brain microtubule stabilization at 25 uM measured after 15 mins by fluorescence based turbidimetry; type: tissue-based
[2] = system: HT-29; assay: cells; settings: Homo sapiens, HT-29, 48 h
Description: Antiproliferative activity against human HT-29 cells assessed as inhibition of cell growth incubated for 48 hrs by propidium iodide staining based fluorometer assay

[3] = system: L5178Y; assay: Reversal of multidrug resistance in mouse L5178Y cells transfected with human MDR1 assessed as reversal of rhodamine 123 accumulation at 5 ug/ml incubated for 30 mins by flow cytometry; type: functional, cell-based; settings: dose 5.0 µg/ml
[4] = system: NCI-H460; assay: cells; settings: Homo sapiens, NCI-H460, 48 h
Description: Antiproliferative activity against human NCI-H460 cells assessed as inhibition of cell growth incubated for 48 hrs by propidium iodide staining based fluorometer assay

[5] = system: L5178Y; assay: Reversal of multidrug resistance in mouse L5178Y cells transfected with human MDR1 assessed as reversal of rhodamine 123 accumulation at 50 ug/ml incubated for 30 mins by flow cytometry; type: functional, cell-based; settings: dose 50.0 µg/ml
[6] = target: Tubulin (Sus scrofa) (UniProt P02554+P02550); assay: Inhibition of pig brain tubulin polymerization at 25 uM measured after 15 mins by fluorescence based turbidimetry; type: tissue-based
[7] = Inhibition of full length mouse GST-tagged BRAF V600E mutant preincubated for 60 mins followed by addition of N-terminal His-tagged full length human MEK1 incubated for 25 mins in presence of ATP by ELISA assay
[8] = Toxicity in mouse L5178Y cells transfected with human MDR1 at 50 ug/ml after short period of incubation by tryptan blue assay; type: cell-based; settings: dose 50 µg/ml
[9] = Cytotoxicity against human MCF-10A cells assessed as cell viability incubated for 96 hrs by MTT assay; type: toxicity, cell-based; parameters: concentration or dose not given beside the values; settings: read-out: Activity
[10] = system: A549; assay: Antiproliferative activity against human A549 cells assessed as inhibition of cell growth incubated for 48 hrs by propidium iodide staining based fluorometer assay; type: functional; settings: A549, 48 h
[11] = system: PC-3; assay: cells; settings: Homo sapiens, PC-3, 48 h
Description: Antiproliferative activity against human PC-3 cells assessed as inhibition of cell growth incubated for 48 hrs by propidium iodide staining based fluorometer assay

[12] = target: Epidermal growth factor receptor (Homo sapiens, UniProt P00533); assay: Inhibition of recombinant 6His-tagged EGFR cytoplasmic domain (645 to 1186 residues) (unknown origin) autophosphorylation expressed in baculovirus infected Sf9 insect cells preincubated for 10 mins followed by ATP and MgCl2 addition measured after 60 mins by DELFIA/time-resolved fluorometric analysis
[13] = system: MCF7; assay: Antiproliferative activity against human MCF7 cells assessed as inhibition of cell growth incubated for 48 hrs by propidium iodide staining based fluorometer assay; type: functional; settings: MCF7, 48 h
[14] = system: PANC-1; assay: cells; settings: Homo sapiens, PANC-1, 48 h
Description: Antiproliferative activity against human PANC-1 cells assessed as inhibition of cell growth incubated for 48 hrs by propidium iodide staining based fluorometer assay

[15] = system: MIA PaCa-2; assay: Antiproliferative activity against human MIA PaCa-2 cells assessed as inhibition of cell growth incubated for 48 hrs by propidium iodide staining based fluorometer assay; type: functional; settings: MIA PaCa-2, 48 h

Chain of Epidermal growth factor receptor (P00533 whole entry, the tested form may be a part): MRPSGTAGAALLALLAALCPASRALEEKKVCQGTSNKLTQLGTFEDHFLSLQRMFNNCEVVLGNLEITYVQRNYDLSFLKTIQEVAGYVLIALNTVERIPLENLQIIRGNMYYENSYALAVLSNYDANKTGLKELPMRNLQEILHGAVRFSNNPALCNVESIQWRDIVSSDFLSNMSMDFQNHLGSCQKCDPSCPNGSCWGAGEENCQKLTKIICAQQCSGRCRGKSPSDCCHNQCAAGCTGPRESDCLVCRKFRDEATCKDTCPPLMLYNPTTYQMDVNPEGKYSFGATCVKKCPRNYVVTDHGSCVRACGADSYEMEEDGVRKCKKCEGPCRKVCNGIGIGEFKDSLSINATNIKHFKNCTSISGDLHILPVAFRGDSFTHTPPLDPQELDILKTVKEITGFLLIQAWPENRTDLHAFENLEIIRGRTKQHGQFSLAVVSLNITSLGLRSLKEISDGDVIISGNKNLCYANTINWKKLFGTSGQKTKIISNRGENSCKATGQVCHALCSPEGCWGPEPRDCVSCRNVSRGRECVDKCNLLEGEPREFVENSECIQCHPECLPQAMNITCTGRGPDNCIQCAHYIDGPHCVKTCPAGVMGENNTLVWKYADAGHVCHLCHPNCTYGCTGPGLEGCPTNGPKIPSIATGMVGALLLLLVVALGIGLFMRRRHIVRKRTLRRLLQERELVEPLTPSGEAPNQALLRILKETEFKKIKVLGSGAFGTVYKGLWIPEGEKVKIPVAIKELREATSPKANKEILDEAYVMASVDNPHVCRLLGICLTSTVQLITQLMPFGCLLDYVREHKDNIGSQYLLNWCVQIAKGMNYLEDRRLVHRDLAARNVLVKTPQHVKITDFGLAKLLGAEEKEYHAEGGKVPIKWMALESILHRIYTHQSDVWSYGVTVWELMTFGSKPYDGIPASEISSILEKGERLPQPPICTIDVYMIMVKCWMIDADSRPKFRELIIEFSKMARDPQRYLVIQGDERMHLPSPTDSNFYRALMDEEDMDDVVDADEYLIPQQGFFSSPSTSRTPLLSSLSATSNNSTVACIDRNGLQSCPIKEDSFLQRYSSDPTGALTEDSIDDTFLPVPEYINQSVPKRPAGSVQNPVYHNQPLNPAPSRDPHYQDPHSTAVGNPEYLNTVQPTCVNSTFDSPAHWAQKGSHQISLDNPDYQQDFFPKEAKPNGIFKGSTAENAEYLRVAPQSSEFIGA
Chain of Tubulin (Sus scrofa) (P02550 whole entry, looked up): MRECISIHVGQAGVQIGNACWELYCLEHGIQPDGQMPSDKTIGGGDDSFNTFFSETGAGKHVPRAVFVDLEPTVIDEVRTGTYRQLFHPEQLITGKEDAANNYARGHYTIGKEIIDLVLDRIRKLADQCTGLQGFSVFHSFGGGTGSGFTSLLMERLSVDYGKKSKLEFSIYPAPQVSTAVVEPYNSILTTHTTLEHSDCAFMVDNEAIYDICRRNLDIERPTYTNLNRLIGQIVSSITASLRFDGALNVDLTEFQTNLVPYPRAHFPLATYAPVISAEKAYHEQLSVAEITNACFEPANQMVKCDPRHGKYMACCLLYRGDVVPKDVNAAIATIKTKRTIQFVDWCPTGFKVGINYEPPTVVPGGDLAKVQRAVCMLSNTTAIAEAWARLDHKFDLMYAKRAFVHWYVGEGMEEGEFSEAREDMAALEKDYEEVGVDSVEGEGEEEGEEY
Chain of Tubulin (Sus scrofa) (P02554 whole entry, looked up): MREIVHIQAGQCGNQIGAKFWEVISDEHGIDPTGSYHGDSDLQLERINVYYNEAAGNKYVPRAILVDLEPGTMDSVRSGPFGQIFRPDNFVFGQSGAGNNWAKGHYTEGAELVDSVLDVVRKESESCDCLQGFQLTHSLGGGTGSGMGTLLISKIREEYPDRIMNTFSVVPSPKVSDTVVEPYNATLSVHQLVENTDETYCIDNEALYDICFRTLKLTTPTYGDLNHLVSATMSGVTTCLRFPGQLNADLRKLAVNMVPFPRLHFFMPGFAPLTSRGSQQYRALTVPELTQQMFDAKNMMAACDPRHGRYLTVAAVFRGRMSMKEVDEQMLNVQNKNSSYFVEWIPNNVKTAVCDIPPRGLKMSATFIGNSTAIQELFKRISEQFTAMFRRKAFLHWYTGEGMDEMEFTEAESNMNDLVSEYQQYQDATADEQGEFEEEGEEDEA

| IC50 [2] [nM] | IC50 [4] [nM] | inhibition [6] | IC50 [7] [nM] | IC50 [10] [nM] | IC50 [11] [nM] | IC50 [12] [nM] | IC50 [13] [nM] | IC50 [14] [nM] | IC50 [15] [nM] | IC50 ([12]; sf9) [nM] | SMILES | Activity [1] | Activity [3] | Activity [5] | Activity [8] | viability at 96 h [9] [%] |
| --- | --- | --- | --- | --- | --- | --- | --- | --- | --- | --- | --- | --- | --- | --- | --- | --- |
| 2100 | 1900 | Active | 2400 | 2200 | 1900 | 3200 | 2500 | 2000 | 2600 | – | COc1cc(/C=C2\CC(C)c3ccccc3\C2=N\O)c(Br)c(OC)c1OC (stereo unspecified) | inactive | inactive | Active | Non-Toxic | 98 |
| 4500 | 4100 | – | – | 4100 | 4700 | – | 4100 | 4200 | 4900 | – | CCN(CC)CCON=C1/C(=C/c2cc(OC)c(OC)c(OC)c2Br)CC(C)C/C1=C\c1cc(OC)c(OC)c(OC)c1Br (stereo unspecified) | inactive | – | – | – | 94 |
| 70 | 80 | inactive | 1600 | 60 | 90 | 70 | 60 | 90 | 70 | – | COc1cc(/C=C2\CN(C)C/C(=C\c3cc(OC)c(OC)c(OC)c3Br)C2=NO)c(Br)c(OC)c1OC | inactive | inactive | inactive | Non-Toxic | 96 |
| 90 | 70 | inactive | 3200 | 70 | 80 | 100 | 90 | 90 | 80 | – | CCN(CC)CCON=C1/C(=C/c2cc(OC)c(OC)c(OC)c2Br)CN(C)C/C1=C\c1cc(OC)c(OC)c(OC)c1Br | inactive | inactive | inactive | Non-Toxic | 95 |
| 400 | 400 | Active | 2700 | 300 | 400 | – | 400 | 200 | 700 | 500 | COc1cc(/C=C2\CC(C)C/C(=C\c3cc(OC)c(OC)c(OC)c3Br)C2=NO)c(Br)c(OC)c1OC (stereo unspecified) | inactive | inactive | inactive | Non-Toxic | 98 |
| 30 | 40 | Active | 1000 | 20 | 20 | 1900 | 90 | 20 | 20 | – | COc1cc(/C=C2\CCc3ccc([N+](=O)[O-])cc3\C2=N\O)c(Br)c(OC)c1OC | inactive | inactive | Active | Non-Toxic | 96 |
| 2200 | 2600 | Active | 6300 | 1900 | 2200 | 8400 | 2200 | 2100 | 2900 | – | COc1cc2c(cc1OC)C(=N/O)/C(=C/c1cc(OC)c(OC)c(OC)c1Br)CC2 | inactive | inactive | Active | Non-Toxic | 92 |
| 1100 | 1300 | Active | 1700 | 2000 | 2300 | 4600 | 1400 | 1500 | 1200 | – | COc1cc(/C=C2\CCc3c(O)cccc3\C2=N\O)c(Br)c(OC)c1OC | inactive | inactive | Active | Non-Toxic | 90 |
| 1700 | 1100 | Active | 1900 | 1200 | 1400 | 2100 | 800 | 1000 | 1200 | – | COc1ccc2c(c1)CCC(=C\c1cc(OC)c(OC)c(OC)c1Br)/C2=N\O | inactive | inactive | Active | Non-Toxic | 92 |
| 600 | 600 | Active | 1800 | 400 | 700 | 4200 | 500 | 700 | 600 | – | COc1ccc(OC)c2c1CCC(=C\c1cc(OC)c(OC)c(OC)c1Br)/C2=N\O | inactive | inactive | Active | Non-Toxic | 89 |
| 1900 | 1900 | – | – | 1600 | 2200 | – | 1800 | 1900 | 1900 | – | COc1cc(/C=C2\CCc3c(O)cccc3C2=O)c(Br)c(OC)c1OC | – | – | – | – | 93 |
| 2700 | 2600 | – | – | 2900 | 2000 | – | 2600 | 2100 | 2300 | – | COc1ccc2c(c1)CC/C(=C\c1ccc(OC)c(OC)c1Cl)C2=O | – | – | – | – | 89 |
| 9200 | 10900 | – | – | 9100 | 9300 | – | 10900 | 9900 | 9000 | – | COc1cc(/C=C2\CCc3ccc(Br)cc3C2=O)c(Br)c(OC)c1OC | – | – | – | – | 92 |
| 90 | 80 | Active | 900 | 80 | 20 | 2000 | 70 | 90 | 90 | – | COc1ccc(/C=C2\CCc3ccc([N+](=O)[O-])cc3\C2=N\O)c(Cl)c1OC | inactive | inactive | Active | Non-Toxic | 93 |
| 7000 | 7200 | – | – | 7100 | 6400 | – | 6600 | 6900 | 6600 | – | CCN(CC)CCO/N=C1\C(=C\c2ccc(OC)c(OC)c2Cl)CCc2ccc([N+](=O)[O-])cc21 | – | – | – | – | 94 |
| 5100 | 5300 | – | – | 5800 | 5100 | – | 5600 | 5800 | 5200 | – | COc1ccc(/C=C2\COC/C(=C\c3ccc(OC)c(OC)c3Cl)C2=O)c(Cl)c1OC | – | – | – | – | 89 |
| 6700 | 7400 | – | – | 7600 | 7200 | – | 8100 | 7200 | 7500 | – | COc1cc(/C=C2\CC(C(C)C)C/C(=C\c3cc(OC)c(OC)c(OC)c3Br)C2=O)c(Br)c(OC)c1OC (stereo unspecified) | – | – | – | – | 89 |
| 2900 | 2900 | – | – | 4400 | 3700 | – | 3200 | 3200 | 3000 | – | COc1ccc(/C=C2\CC(C)C/C(=C\c3ccc(OC)c(OC)c3Cl)C2=O)c(Cl)c1OC (stereo unspecified) | – | – | – | – | 94 |
| 1800 | 1200 | – | – | 1800 | 1100 | – | 1300 | 1600 | 1400 | – | COc1cc(/C=C2\CC(C)C/C(=C\c3cc(OC)c(OC)c(OC)c3Br)C2=O)c(Br)c(OC)c1OC (stereo unspecified) | – | – | – | – | 91 |
| 4500 | 4600 | – | – | 4300 | 4400 | – | 4900 | 4200 | 4000 | – | CCN(CC)CCO/N=C1\C(=C\c2cc(OC)c(OC)c(OC)c2Br)CCc2ccc([N+](=O)[O-])cc21 | – | – | – | – | 97 |
